From ChEMBL document CHEMBL3639059, “Pyrazolothiazole compound” (2013)

Target: T1, Corticotropin-releasing factor receptor 1 (Homo sapiens, UniProt P34998)
T1 sequence (P34998 whole entry): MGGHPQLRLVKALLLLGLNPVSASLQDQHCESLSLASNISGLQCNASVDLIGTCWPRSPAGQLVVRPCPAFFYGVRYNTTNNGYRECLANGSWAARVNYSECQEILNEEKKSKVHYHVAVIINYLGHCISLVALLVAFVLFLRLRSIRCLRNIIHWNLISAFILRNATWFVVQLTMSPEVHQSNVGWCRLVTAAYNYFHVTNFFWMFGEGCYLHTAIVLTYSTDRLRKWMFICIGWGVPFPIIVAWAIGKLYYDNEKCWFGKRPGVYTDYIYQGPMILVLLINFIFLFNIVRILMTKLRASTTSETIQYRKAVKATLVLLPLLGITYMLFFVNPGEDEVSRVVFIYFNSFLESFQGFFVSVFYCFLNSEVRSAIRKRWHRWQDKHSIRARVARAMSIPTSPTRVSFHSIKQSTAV
Experiment: Binding Assay: A binding competition experiment with CRF was conducted by the SPA (GE Healthcare) method using a 96-well plate.

IC50: 74 nM
Structure (SMILES): CCCN(c1c(OC)nn2c(-c3c(OC)cc(Cl)cc3OC)csc12)C1CCOCC1
